Test results as given in patent publication US3976672A, “(Hydrocarbylphenylsulfonyl)alkyltrimethylstannanes” (priority 1975, dated 1976).

Experiments:
[1] = tested on: adult mites, urticae Koch; test: Mite One-Day Residual Test (Example 8); assay type: in vivo; conditions: 500 PPM, cotton, six days after infestation; 8640 min
Procedure: Test compounds were prepared as in B, the Aphid Contact Test, above but were further diluted to 500 ppm with water.
Cotton, in the second primary leaf stage grown in twelve ounce cups under greenhouse conditions at 70°-75° F., was used in the test.
one plant (two primary leaves) in one pot was used for each replicate; two replicates were used for each concentration of organotin compound tested.
The plants were sprayed with the dispersions using a small spray atomizer to throughly drench the foliage.
One day following treatment, a circle of tree tanglefoot was placed on the upper surface of the treated leaves and adult mites, urticae Koch, were transferred into this confinement.
Six days following infestation with mites, the plants were examined for adult live mites remaining on the leaves. On an estimation basis in comparison with the number of living mites on the control plants, the percent control was determined.

[2] = tested on: cotton boll weevils, Anthonomous grandis Boheman; test: Cotton Boll Weevil Test; assay type: in vivo; conditions: for % Control Cotton Boll Weevil: 1000 PPM, cotton seedlings, five days, Abbott-corrected, 7200 min; for Boll Weevil % Feeding Reduced on Cotton: 1000 ppm, visual comparison of feeding damage
Procedure: Formulations were prepared at 1000 ppm as in B, the Aphid Contact Test, above. Cotton seedlings 12 to 14 days old grown in 12 oz cups were used. Two pots were treated with each formulation by spraying with a spray atomizer while rotating the pots on a turntable. Five adult cotton boll weevils, Anthonomous grandis Boheman, were placed in each pot following treatment and were caged by covering the pots with an inverted 16 oz styrofoam cup with small perforations punched in the bottom. The surviving weevils were counted after five days in the greenhouse to determine the percent control, corrected for any natural mortality in the control plants by Abbott's formula. The percent reduction in feeding was estimated by visual comparison of the feeding damage to the treated plants with the control (untreated) plants.
(§1) F. Abbott's Formula: [formula]

[3] = tested on: tobacco bud worm, Heliothis virescens (Fabricius); test: Tobacco Bud Worm Diet Test; assay type: in vivo; conditions: 1000 PPM, one week, Abbott-adjusted, 10080 min
Procedure: Test formulations were prepared at 1000 ppm as in B, the Aphid Contact Test, above. Two-tenths ml of the diluted formulations was pipetted onto the surface of 5 grams of a synthetic diet mixture held in partially filled cells of a plastic jelly tray. Five cells were treated with each chemical dilution. The diet mixture was a modified Vanderzant diet consisting of wheat germ, soy flour, agar, sugar, salts, vitamins, preservatives and water. The jelly trays had fifty cavities per sheet, each cavity being approximately 2.5 × 4.0 × 1.5 cm.
Following treatment, a third or early fourth instar larva of the tobacco bud worm, Heliothis virescens (Fabricius), was placed in each cell. The trays were then covered with a plastic film plus a sheet of rigid plastic and were held in an incubator at 80° F.
At the end of one week, the trays were examined and the percent control was determined, adjusted for any natural mortality in the controls by Abbott's formula. The trays were held an additional week and any abnormalities in the development of the survivors was noted.
as §1

[4] = tested on: yellow fever mosquito, Aedes aegypti (Linnaeus); assay type: in vivo; conditions: 1 PPM, 72 hours
Procedure: Formulations were prepared by dissolving 30 mg of organotin compound of the invention in 10 ml of acetone. This solution was then diluted to 1 ppm with water. Two 25-ml aliquots were placed in test tubes to which were added 10 to 25 fourth instar larvae of the yellow fever mosquito, Aedes aegypti (Linnaeus). The tubes were held in darkness for 72 hours. At the end of this period the percent control was determined.

[5] = tested on: corn leaf aphids Rhopalosiphum maidis (Fitch); test: Aphid Contact Test; assay type: in vivo; conditions: 1000 PPM spray, barley, 5 days
Procedure: Test formulations were prepared for spraying at 1000 ppm (parts per million) concentration by dissolving them in a small amount of acetone and adding a suitable wetting agent. Typically, […] of organotin compound was dissolved (or suspended) in 10 ml of acetone, 2 drops of Triton-X100 wetting agent (octylphenoxy polyethoxy ethanol with 9-10 mole percent of polyethylene oxide) were added and this was suspended in 300 ml of water make a 6000 ppm suspension. An aliquot was then further diluted with distilled water to 1000 ppm concentration of organotin compound.
Eight to ten day old barley seedlings, grown ten plants each in a 12 oz. cup, were infested with corn leaf aphids Rhopalosiphum maidis (Fitch), two days prior to treatment. Two pots were treated with each formulation by spraying with a spray atomizer while the plants were rotating on a turntable. Following treatment, the plants were held for 5 days in the greenhouse. At the end of this period, the percent control of the aphids was estimated based on the reduction of the population density as compared to untreated plants used as controls.

[6] = Hydrolysis in humid air (81% humidity chamber); assay type: physicochemical
Excerpt: A. The compound subjected to humid air was a typical Peterson compound, phenylsulfonylmethyltrimethylstannane, [formula] A 5 gal. jar was set on its side on a wooden support and contained a wire mesh screen to support samples in test over a mixture of 152 g of (NH4)2 SO4 in 168 g of H2 O. An excess of (NH4)2 SO4 in contact with a saturated aqueous solution of (NH4)2 SO4 gives 81% humidity in a closed space.^1 The following samples of this Peterson compound were weighted into 40 mm O.D. petri dishes (minus cover) of 8 mm depth and the dishes placed into the humidity chamber, and the chamber was then closed: No. 15 dish 0.2186 g; No. 34 dish 0.2006 g. Before the samples were removed from the balance, a solid crust began forming on the surface of the liquid and, inside of ten minutes, covered all of the liquid surface. An odor of a volatile trimethyltin compound was noted. When the samples were placed in the humidity chamber, the samples coated almost all of the surface area inside the dishes. The 5 gal. jar was set on the bench under normal laboratory lighting. The initial temperature inside the chamber was 24.5° C. Over 4 days, the temperature ranged from the initial temperature as a high to a low temperature of 18° C. The No. 15 sample was removed after 4 days. Under the surface crust, there was an oily solid. The sample was scraped with a spatula into a 2 dram sample vial. The oily solid remaining was washed into the vial with chloroform (about 0.5 to 1 ml). The chloroform was removed under a stream of nitrogen. The No. 34 sample was removed from the chamber after 7 days. The sample was completely solid and was scraped into a vial.
at 307 Hz and a broadened singlet flanked by satellites at 36.5 Hz for (CH3)3 Sn and a broadened singlet at 191 Hz for the OH.
B. A corresponding compound, closely related to the compounds of this invention, phenylsulfonylethyltrimethylstannane, [formula] was subjected to similar humidity conditions in the same equipment. […]

[7] = Thermal stability on distillation; assay type: physicochemical; conditions: at the temperature required to distill the starting sulfone
Procedure: The pot residue, a black brittle glass when cooled, weighed 16.2 g. The cuts were analyzed by (glpc) gas-liquid phase chromatography using a 6 feet × 1/8 inch column packed with 10% of silicone gum rubber on silanized diatomaceous earth at a column temperature of 260° C. […] There also was a more volatile component which increased in amount in each successive cut. The latter observation accompanied by a gradual loss in vacuum is usually associated with some thermal decomposition. Cuts No. 2 and No. 3 were combined for a second distillation using a vacuum jacketed vigreaux column. One cut was obtained, b.p. 43°-125° C. […] The vigreaux column was replaced by a short-path head and a third distillation was run on the pot residue. The following cuts were taken:
A sample of Cut No. 1 was analyzed by nuclear magnetic resonance spectroscopy (NMR). […] In summary, the product could only be obtained as a mixture with the starting sulfone despite three distillation attempts to separate the mixture.

[8] = cited from earlier work
[9] = tested on: tobacco bud worm, Heliothis virescens (Fabricius); test: 3-day tobacco bud worm test on cotton, comparative (Table VII); assay type: in vivo; conditions: 6 days after spray
Procedure: Tesst formulations were prepared by dissolving 50 mg of organotin compound of the invention in one ml of acetone, adding one drop of Emulfor 719, a commercial surface-active dispersing agent (polyoxyethylated vegetable oil) and suspending in 50 m1 of water for a concentration of 1000 ppm (parts per million). Aliquots of the solution were further diluted with distilled water to concentrations of 100, 20 and 5 ppm.
Cotton seedlings two weeks old were used. These were grown in 12 ounce cups with two plants in each cup. The diluted formulations were applied to the seedling plants with a spray atomizer and allowed to dry. Three cups were treated with each diluted formulation. A third instar larvae of the tobacco bud worm, Heliothis virescens (Fabricius). was placed in each cup and confined by inverting a perforated 16 oz. styrofoam cup over the top. Percent control of the worms and amount of feeding damage to the plants was determined after two weeks in the greenhouse.
(§2) The 3-day tobacco bud worm test on cotton differed as follows from that set forth in Example 10. The plants used were 3 weeks old, and were covered with cheesecloth during the test. Six replicates were used for each test compound, with 1 worm per plant. The plants were infested with larva 3 days after the spray application and the recorded observations were made 6 days after the spray application.

[10] = tested on: adult mites, Tetranychus urticae koch; test: Mite one-day residual test, comparative (Table VII); assay type: in vivo; conditions: 3 days after loading mites, 85° F.
Procedure: Cotton in the second primary leaf stage, grown in twelve ounce cups under greenhouse conditions at 70°-75° F. was used in this test. One plant (two primary leaves) in one pot was used for each replicate and two replicates were used for each concentration of tin compound tested. Test formulations were prepared by dissolving 50 mg of tin compound in one ml of acetone, adding one drop of Emulfor 719, a commercial surface-activedispersing agent (polyoxyethylated vegetable oil) and suspended in 50 ml of water for concentration of 1000 ppm (parts per million). Aliquots of this solution were further diluted with distilled water to concentrations of 100, 20 and 5 ppm. The plants were sprayed with the formulations using a small spray atomizer to thoroughly drench the foliage. One day following treatment, a circle of tree tanglefoot was placed on the upper surfaces of the treated leaves and adult mites, Tetranychus urticae koch, were transferred into this confinement. Counts of these mites were made immediately following transfer and again six days later.
The mite one-day residual test differed as follows from that set forth in Example 9. The plants were held in a growth chamber maintained at 85° F., and were exposed to high intensity fluorescent lights for 14 hour days. The recorded observations were made 3 days after loading the mites.
as §2

Row | Compound | % Control Mite One-Day Residual [1] | % Control Cotton Boll Weevil [2] | Boll Weevil % Feeding Reduced on Cotton [2] | % Control Tobacco Bud Worm [3] | % Control Mosquito Larvae [4] | % Control Aphids [5] | further results
1 | 2-(p-dodecylphenylsulfonyl)ethyltrimethylstannane [Compound 11] | 100% | 100% | 50% | 100% | 100% | 90% | –
2 | 2-Thioacetoxyethyltri-n-butyltin | 80% | 40% | 90% | 20% | 55% | 95% | –
3 | Trimethyltin p-toluenesulfinate | 100% | 100% | 100% | 100% | 0% | 98% | –
4 | C[CH](S(=O)(=O)c1ccc(C(C)(C)C)cc1)[Sn]([CH3])([CH3])[CH3] (stereo not drawn) [1-[p-t-butylphenylsulfonyl]ethyltrimethylstannane] | – | – | – | – | – | – | hydrolysis deficiencies ([6]; comparison with the Peterson compound): suffers from the same hydrolysis deficiencies as does the Peterson compound
5 | CC(C)(C)c1ccc(S(=O)(=O)[CH2][Sn]([CH3])([CH3])[CH3])cc1 [4-t-butylphenylsulfonylmethyltrimethylstannane] | – | – | – | – | – | – | thermal instability [7]: thermal instability of the product at the temperature required to distill the starting sulfone
6 | CCC[CH2][Sn]([CH2]CCC)([CH2]CCC)[CH2]S(=O)(=O)c1ccccc1 [[(Phenylsulfonyl)methyl]tributyltin] | – | – | – | – | – | – | reactivity toward carbon dioxide and oxygen ([8]; room temperature): unreactive toward carbon dioxide and oxygen at room temperature; decomposition to phenyl methyl sulfone and tributyltin oxide on exposure of a thin layer to air ([8]; within four days, 5760 min): ca. 50%
7 | [CH3][Sn]([CH3])([CH3])[CH2]S(=O)(=O)c1ccccc1 [trimethylphenylsulfonylmethylstannane, phenylsulfonylmethyltrimethylstannane] | – | – | – | – | – | – | hydrolysis in humid air (NMR) ([6]; 81% humidity, 18-24.5° C., 4 days and 7 days): no unreacted starting Peterson compound
8 | [CH3][Sn]([CH3])([CH3])[OH] [trimethyltin hydroxide] | – | – | – | – | – | – | Tobacco Bud Worm % Control ([9]; 0.15 millimoles/liter): 16%; Tobacco Bud Worm % Feeding Reduced ([9]; 0.15 millimoles/liter): 50%; Tobacco Bud Worm % Control ([9]; 0.3 millimoles/liter): 16%; Tobacco Bud Worm % Feeding Reduced ([9]; 0.3 millimoles/liter): 69%; Tobacco Bud Worm % Control ([9]; 0.6 millimoles/liter): 66%; Tobacco Bud Worm % Feeding Reduced ([9]; 0.6 millimoles/liter): 81%; Mite One-Day Residual % Control ([10]; 0.15 millimoles/liter): 7%; Mite One-Day Residual % Control ([10]; 0.3 millimoles/liter): 34%; Mite One-Day Residual % Control ([10]; 0.6 millimoles/liter): 9%
9 | [CH3][Sn]([CH3])([CH3])[CH2]CS(=O)(=O)c1ccccc1 [trimethylphenylsulfonylethylstannane, phenylsulfonylethyltrimethylstannane] | – | – | – | – | – | – | hydrolysis in humid air (infrared, NMR) ([6]; 81% humidity, 27° C./room temperature, 4 days and 2 weeks): not subject to hydrolysis under the stated conditions
